For this assay, the system named is A549 (lung cancer) cells. The experiment in a line: MTT screening of Erlotinib derivatives on A549 cells. Format: cell-based. As to conditions: compound 10 μM, 24 hours, ratio of survival rate with derivative to survival rate with Erlotinib (lower = more active), unpurified in-situ reaction products. The procedure: Screening 840 Erlotinib derivatives by MTT method, operating steps: • (1) A549 (lung cancer) cells were adhered overnight: the logarithmic growth phase cells were digested and then counted, and were laid on 96 well plates overnight with 5000 cells per well. • (2) Adding drug: the compound concentration was diluted to 10 μM with complete culture solution, and the supernatant was discarded, and a volume of 100 μL per well was administrated and treated for 24 hours. • (3) Adding MTT: 20 μL MTT (5 mg/ml) was added to each well and cultured for 4 hours. • (4) Measuring the absorbance value: discarding the supernatant, 150 μL DMSO was added to each well, shaken for 10 minutes to make the crystals fully dissolved. The absorbance at 570 nm was measured by microplate reader.
The relative survival rate was calculated as the ratio of the survival rate of cells treated with Erlotinib derivatives to the survival rate of cells treated with positive compounds (Erlotinib), where lower relative survival rate means the activity of the compounds are better.

As for `COCCOc1cc2ncnc(Nc3cccc(-c4cn(Cc5cc(C)on5)nn4)c3)c2cc1OCCOC` [Compound 54], the Relative survival rate worked out at 0.878.

Consider `COCCOc1cc2ncnc(Nc3cccc(-c4cn(CCc5ccc(Cl)c(Cl)c5)nn4)c3)c2cc1OCCOC` [Compound 87], for which the Relative survival rate came out at 0.850.

In the case of `COCCOc1cc2ncnc(Nc3cccc(-c4cn(CCc5cccc(C(F)(F)F)c5)nn4)c3)c2cc1OCCOC` [Compound 93], the Relative survival rate is on record as 0.621.

Take `COCCOc1cc2ncnc(Nc3cccc(-c4cn(Cc5cccc(C(=O)OC)c5)nn4)c3)c2cc1OCCOC` [Compound 50]: the Relative survival rate was 0.951.

Take `COCCOc1cc2ncnc(Nc3cccc(-c4cn(CC(O)c5cccc(O)c5)nn4)c3)c2cc1OCCOC` (centres unmarked) [Compound 95]: the Relative survival rate stood at 0.971.

In the case of `COCCOc1cc2ncnc(Nc3cccc(-c4cn(C(C)(Cc5ccccc5)C(=O)OC)nn4)c3)c2cc1OCCOC` (centres unmarked) [Compound 24], the Relative survival rate is listed as 0.557.

For the compound `COCCOc1cc2ncnc(Nc3cccc(-c4cn([C@H](C)c5nc6ccccc6[nH]5)nn4)c3)c2cc1OCCOC` [Compound 52], the Relative survival rate was 0.993.

As for `COCCOc1cc2ncnc(Nc3cccc(-c4cn(CCc5ccccn5)nn4)c3)c2cc1OCCOC` [Compound 99], the Relative survival rate came out at 0.888.

Consider `COCCOc1cc2ncnc(Nc3cccc(-c4cn(CCc5cccc(F)c5)nn4)c3)c2cc1OCCOC` [Compound 86], for which the Relative survival rate is listed as 0.861.

In the case of `COCCOc1cc2ncnc(Nc3cccc(-c4cn(C(C)(C)c5ccccc5)nn4)c3)c2cc1OCCOC` [Compound 27], the Relative survival rate was 0.862.

For the compound `COCCOc1cc2ncnc(Nc3cccc(-c4cn(-c5ccc(C)cc5C(=O)O)nn4)c3)c2cc1OCCOC` [Compound 268], the Relative survival rate is 1.311.

Take `COCCOc1cc2ncnc(Nc3cccc(-c4cn(-c5ccccc5)nn4)c3)c2cc1OCCOC` [Compound 266]: the Relative survival rate worked out at 1.130.

`COCCOc1cc2ncnc(Nc3cccc(-c4cn([C@H]5CCc6nc(N)sc6C5)nn4)c3)c2cc1OCCOC` [Compound 22]: the Relative survival rate is listed as 0.866.

Turning to `CCOc1ccccc1Cn1cc(-c2cccc(Nc3ncnc4cc(OCCOC)c(OCCOC)cc34)c2)nn1` [Compound 48], the Relative survival rate turned out to be 0.971.

`COCCOc1cc2ncnc(Nc3cccc(-c4cn(CC5=CCC(O)C=C5)nn4)c3)c2cc1OCCOC` (centres unmarked) [Compound 25]: the Relative survival rate came to 0.885.

Take `CCOC(=O)[C@H](Cc1ccc(O)cc1)n1cc(-c2cccc(Nc3ncnc4cc(OCCOC)c(OCCOC)cc34)c2)nn1` [Compound 26]: the Relative survival rate was 0.942.

In the case of `COCCOc1cc2ncnc(Nc3cccc(-c4cn(-c5ccc(CC(=O)OC)cc5)nn4)c3)c2cc1OCCOC` [Compound 270], the Relative survival rate is on record as 1.200.

Consider `COCCOc1cc2ncnc(Nc3cccc(-c4cn(-c5ccc(Cc6ccccc6)cc5)nn4)c3)c2cc1OCCOC` [Compound 269], for which the Relative survival rate amounted to 1.289.

Take `COCCOc1cc2ncnc(Nc3cccc(-c4cn([C@@H](Cc5ccccc5)C(=O)OC(C)(C)C)nn4)c3)c2cc1OCCOC` [Compound 23]: the Relative survival rate came to 0.874.

Consider `COCCOc1cc2ncnc(Nc3cccc(-c4cn([C@H](CO)C(=O)OCc5ccccc5)nn4)c3)c2cc1OCCOC` [Compound 51], for which the Relative survival rate is reported as 0.989.

`COCCOc1cc2ncnc(Nc3cccc(-c4cn(CCc5cccc([N+](=O)[O-])c5)nn4)c3)c2cc1OCCOC` [Compound 49]: the Relative survival rate stood at 0.913.

`COCCOc1cc2ncnc(Nc3cccc(-c4cn(Cc5ccc(Cl)nc5)nn4)c3)c2cc1OCCOC` [Compound 98]: the Relative survival rate was found to be 0.959.

For `COCCOc1cc2ncnc(Nc3cccc(-c4cn(CCc5cccc(OC)c5)nn4)c3)c2cc1OCCOC` [Compound 20], the Relative survival rate came out at 0.993.

As for `COCCOc1cc2ncnc(Nc3cccc(-c4cn(CCCOCc5ccccc5)nn4)c3)c2cc1OCCOC` [Compound 85], the Relative survival rate turned out to be 0.867.

As to `COCCOc1cc2ncnc(Nc3cccc(-c4cn(C[C@@H](O)c5ccccc5)nn4)c3)c2cc1OCCOC` [Compound 84], the Relative survival rate is recorded as 0.988.

With `COCCOc1cc2ncnc(Nc3cccc(-c4cn(-c5cc(C)nn5-c5ccccc5)nn4)c3)c2cc1OCCOC` [Compound 47], the Relative survival rate was found to be 0.893.

With `COCCOc1cc2ncnc(Nc3cccc(-c4cn(Cc5ccccc5S(C)(=O)=O)nn4)c3)c2cc1OCCOC` [Compound 55], the Relative survival rate stood at 0.814.

Turning to `COCCOc1cc2ncnc(Nc3cccc(-c4cn(Cc5c[nH]cn5)nn4)c3)c2cc1OCCOC` [Compound 53], the Relative survival rate stood at 0.928.

On to `COCCOc1cc2ncnc(Nc3cccc(-c4cn(CC(O)c5cccc(Cl)c5)nn4)c3)c2cc1OCCOC` (centres unmarked) [Compound 92], for which the Relative survival rate was determined as 0.854.

As for `COCCOc1cc2ncnc(Nc3cccc(-c4cn(C5CCCc6ccccc65)nn4)c3)c2cc1OCCOC` (centres unmarked) [Compound 89], the Relative survival rate was 0.577.

Take `COCCOc1cc2ncnc(Nc3cccc(-c4cn(CCc5c[nH]c6cc(Cl)ccc56)nn4)c3)c2cc1OCCOC` [Compound 90]: the Relative survival rate is on record as 0.522.

As to `COCCOc1cc2ncnc(Nc3cccc(-c4cn([C@@H](Cc5ccccc5)C(=O)OC)nn4)c3)c2cc1OCCOC` [Compound 94], the Relative survival rate came to 0.885.

Turning to `COCCOc1cc2ncnc(Nc3cccc(-c4cn(C(C)(C)c5cc(F)cc(F)c5)nn4)c3)c2cc1OCCOC` [Compound 56], the Relative survival rate came out at 0.978.

On to `COCCOc1cc2ncnc(Nc3cccc(-c4cn(-c5ccc(O)c(C(=O)O)c5)nn4)c3)c2cc1OCCOC` [Compound 267], for which the Relative survival rate came to 1.129.

Take `COCCOc1cc2ncnc(Nc3cccc(-c4cn([C@H](Cc5ccc(O)cc5)C(=O)OC)nn4)c3)c2cc1OCCOC` [Compound 88]: the Relative survival rate is reported as 0.889.

Take `COCCOc1cc2ncnc(Nc3cccc(-c4cn([C@@H](C)C(=O)OCc5ccccc5)nn4)c3)c2cc1OCCOC` [Compound 96]: the Relative survival rate is 0.829.

With `COCCOc1cc2ncnc(Nc3cccc(-c4cn(CCc5ccc6ccccc6c5)nn4)c3)c2cc1OCCOC` [Compound 97], the Relative survival rate came out at 0.654.

Regarding `COCCOc1cc2ncnc(Nc3cccc(-c4cn(Cc5ccsc5)nn4)c3)c2cc1OCCOC` [Compound 57], the Relative survival rate is reported as 0.957.

The values are drawn from patent US12681007B2, “High throughput method for constructing and screening compound library and reaction device” (ZH[…] (SHENZHEN) CO., LTD., priority 2019, dated 2026).
